# Earlier results in patent publication USRE38386E1, “Retardation of metalloproteinase incidental to HIV and/or AIDS” (priority 1997, dated 2004).
# Legend:
# [1] = system: endothelial cell monolayers; settings: incubation of HIV-infected monocytes with the proteinase inhibitor
# [2] = system: HIV-infected monocytes; settings: interferon-gamma at 50 U/ml
# [3] = system: 92-kd metalloproteinase (MMP-9)
# [4] = system: HIV; settings: added to monocytes on day 10 after infection
substance,measurement,setting,value
"TIMP-1: proteinase inhibitor, tissue inhibitor of metalloproteinase",increased permeability of endothelial cell monolayers to 125I albumin,[1],inhibited
"interferon-gamma: interferon-gamma, used to treat HIV-infected monocytes",ability of infected monocytes to form an invasive network on matrigel and their invasion through the matrigel matrix,[2],inhibited
same,inhibition of MMP-9 production,[3]; added to monocytes on day 10 after infection,more than threefold
same,levels of MMP-9,"[3]; treated 1 day after HIV infection, vs monocytes inoculated with live HIV, heat-inactivated HIV or uninfected control",substantially lower
same,levels of MMP-9 produced by HIV-infected monocytes,"[3]; treated 1 day prior to infection with HIV, vs untreated HIV-infected monocytes",significant reduction
same,reduction of virus replication,[4],no significant reduction
